Results taken from patent US20160213647A1, “COMPOSITIONS AND METHODS FOR INHIBITING VIRAL INFECTION” (priority 2015, published 2016).
≈ marks a conversion by molar mass, not a printed value. Like-named read-outs stand apart in the source and are kept apart here.

Key:
[1] = tested on: Norovirus; assay: microbe, parasite or virus in culture; type: cell-based
[2] = tested on: A/Ca/07/09 (H1N1); assay: microbe, parasite or virus in culture; type: cell-based; conditions: Influenza A virus, H1N1, HEK-293T; read-out: EC50
[3] = tested on: DENV-1; assay: Virus yield reduction assay by qRT-PCR in Vero cells; type: cell-based; conditions: Dengue virus, DENV1, Vero, 48 h, read-out: Antiviral Activity IC50
[4] = tested on: Vero cells; conditions: African green monkey
[5] = tested on: Junin virus strains Candid-1, XJC13 and IV4454; assay: in vitro; conditions: African green monkey (Vero), human (A549)
[6] = in vitro; conditions: African green monkey, CC50 (Neutral Red)
[7] = tested on: HIV-2 CBL20 H9; assay: microbe, parasite or virus in culture; conditions: Human immunodeficiency virus 2, PBMC
[8] = tested on: JUNV strain XJCl3; assay: microbe, parasite or virus in culture; conditions: Mammarenavirus juninense, Vero, 48 h
[9] = tested on: JUNV strain XJCl3; assay: microbe, parasite or virus in culture; conditions: Mammarenavirus juninense, A549, 48 h
[10] = tested on: JUNV strain IV4454; assay: microbe, parasite or virus in culture; conditions: Mammarenavirus juninense, A549, 48 h
[11] = tested on: JUNV strain Candid-1; assay: microbe, parasite or virus in culture; conditions: Mammarenavirus juninense, Vero, 48 h
[12] = tested on: HIV-1 isolate NL4-3; assay: microbe, parasite or virus in culture; conditions: Human immunodeficiency virus 1, NL43, PBMC
[13] = tested on: HIV-1 isolate 1022-48; assay: microbe, parasite or virus in culture; conditions: Human immunodeficiency virus 1, PBMC

What does the source list for `NCC(=O)Nc1ccc(-n2nc(C(F)(F)F)cc2-c2ccc3c(ccc4ccccc43)c2)cc1` [AR-12, 2-amino-N-(4-(5-(phenanthren-2-yl)-3-(trifluoromethyl)-1H-pyrazol-1-yl)phenyl)acetamide]?
EC50 [1]: 718 nM; EC90 [1]: 8100 nM; EC50 [2]: 370 nM; IC50 [3]: 640 nM; MNTD [4]: > 10 µM; selectivity ratio [5]: 35.1 to 129; CC50 [6]: 1.3 µg/mL (≈ 2.82 µM); IC50 [7]: 510 nM; EC50 [8]: 230 ± 10 nM; EC50 [9]: 550 ± 50 nM; EC50 [10]: 550 ± 50 nM; EC50 [11]: < 150 nM; IC90 [12]: 749 nM; IC90 ([12]; read-out: IC50): 2170 nM; IC90 [13]: 489 nM; IC90 ([13]; read-out: IC50): 3680 nM
